# Activity calls are given as the source filed them. The calls are words filed in the database; no cut-off is given here.
# How the values were obtained:
# Mycobacterium kansasii [1] = assay: Antimycobacterial activity against Mycobacterium kansasii 6509/80 after 14 days by micromethod; type: functional; conditions: 6509/80, 336 h
# Mycobacterium avium [2] = assay: Antimycobacterial activity against Mycobacterium avium 330/88 after 21 days by micromethod; type: functional; conditions: 330/88, 504 h
# [3] = Selectivity index, ratio of IC50 for human HepG2 cells to MIC for Candida glabrata 20/I; type: toxicity; conditions: read-out: Selectivity Index
# Mycobacterium kansasii [4] = assay: Antimycobacterial activity against Mycobacterium kansasii 6509/96 after 21 days by micromethod; type: functional; conditions: 6509/96, 504 h
# Candida tropicalis [5] = assay: Antifungal activity against Candida tropicalis 156 after 48 hrs by microdilution broth method; type: functional; conditions: Candida tropicalis, 156, 48 h
# [6] = Selectivity index, ratio of IC50 for human HepG2 cells to MIC for Trichophyton mentagrophytes 445; type: toxicity; conditions: read-out: Selectivity Index
# Mycobacterium kansasii [7] = assay: Antimycobacterial activity against Mycobacterium kansasii 6509/96 after 14 days by micromethod; type: functional; conditions: 6509/96, 336 h
# Enterococcus faecalis [8] = assay: Antibacterial activity against gram-positive Enterococcus faecalis J 14365/08 after 24 hrs by microdilution broth method; type: functional; conditions: J 14365/08, 24 h
# Pichia kudriavzevii [9] = assay: Antifungal activity against Candida krusei E28 after 48 hrs by microdilution broth method; type: functional; conditions: E28, 48 h
# [10] = Cytotoxicity against mouse bone marrow macrophages after overnight incubation by MTT assay; conditions: BMDM
# Escherichia coli [11] = assay: Antibacterial activity against gram-negative Escherichia coli CCM 4517 after 48 hrs by microdilution broth method; type: functional; conditions: CCM 4517, 48 h
# Mycobacterium avium [12] = assay: Antimycobacterial activity against Mycobacterium avium 330/88 after 14 days by micromethod; type: functional; conditions: 330/88, 336 h
# Klebsiella pneumoniae [13] = assay: Antibacterial activity against gram-negative Klebsiella pneumoniae D 11750/08 after 24 to 48 hrs by microdilution broth method; type: functional, organism-based
# Nakaseomyces glabratus [14] = assay: Antifungal activity against Candida glabrata 20/I after 24 hrs by microdilution broth method; type: functional
# Mycobacterium kansasii [15] = assay: Antimycobacterial activity against Mycobacterium kansasii 6509/80 after 7 days by micromethod; type: functional; conditions: 6509/80, 168 h
# Staphylococcus aureus [16] = assay: Antibacterial activity against gram-positive methicillin-resistant Staphylococcus aureus H 5996/08 after 48 hrs by microdilution broth method; type: functional; conditions: H 5996/08, 48 h
# Enterococcus faecalis [17] = assay: Antibacterial activity against gram-positive Enterococcus faecalis J 14365/08 after 48 hrs by microdilution broth method; type: functional; conditions: J 14365/08, 48 h
# Pseudomonas aeruginosa = assay: Antibacterial activity against gram-negative Pseudomonas aeruginosa CCM 1961 after 48 hrs by microdilution broth method; type: functional, organism-based
# Candida albicans = assay: Antifungal activity against Candida albicans ATCC 44859 after 24 to 48 hrs by microdilution broth method; type: functional, organism-based
# Aspergillus fumigatus = assay: Antifungal activity against Aspergillus fumigatus 231 after 24 to 48 hrs by microdilution broth method; type: functional, organism-based
# Candida tropicalis [18] = assay: Antifungal activity against Candida tropicalis 156 after 24 hrs by microdilution broth method; type: functional; conditions: Candida tropicalis, 156, 24 h
# Mycobacterium kansasii [19] = assay: Antimycobacterial activity against Mycobacterium kansasii 6509/80 after 21 days by micromethod; type: functional; conditions: 6509/80, 504 h
# [20] = system: Mycobacterium tuberculosis; assay: Antimycobacterial activity against Mycobacterium tuberculosis H37Rv 331/88 after 21 days by micromethod; type: functional; conditions: H37Rv 331/88, 504 h
# MONO-MAC-6 [21] = assay: Cytostatic activity against human MONO-MAC-6 cells incubated overnight followed by compound wash measured after 72 hrs by MTT assay; type: ADME, cell-based; conditions: MONO-MAC-6, 72 h
# HepG2 [22] = assay: Cytotoxicity against human HepG2 cells after overnight incubation by MTT assay; type: cell-based
# Nakaseomyces glabratus [23] = assay: Antifungal activity against Candida glabrata 20/I after 48 hrs by microdilution broth method; type: functional
# [24] = system: Staphylococcus epidermidis; assay: Antibacterial activity against gram-positive Staphylococcus epidermidis H 6966/08 after 24 hrs by microdilution broth method; type: functional; conditions: H 6966/08, 24 h
# Staphylococcus aureus [25] = assay: Antibacterial activity against gram-positive Staphylococcus aureus CCM 4516/08 after 24 hrs by microdilution broth method; type: functional; conditions: CCM 4516/08, 24 h
# Mycobacterium kansasii [26] = assay: Antimycobacterial activity against Mycobacterium kansasii 6509/96 after 7 days by micromethod; type: functional; conditions: 6509/96, 168 h
# Trichosporon asahii = assay: Antifungal activity against Trichosporon asahii 1188 after 24 to 48 hrs by microdilution broth method; type: functional, organism-based
# Staphylococcus aureus [27] = assay: Antibacterial activity against gram-positive methicillin-resistant Staphylococcus aureus H 5996/08 after 24 hrs by microdilution broth method; type: functional; conditions: H 5996/08, 24 h
# [28] = system: Staphylococcus epidermidis; assay: Antibacterial activity against gram-positive Staphylococcus epidermidis H 6966/08 after 48 hrs by microdilution broth method; type: functional; conditions: H 6966/08, 48 h
# Lichtheimia corymbifera = assay: Antifungal activity against Absidia corymbifera 272 after 24 to 48 hrs by microdilution broth method; type: functional, organism-based
# Klebsiella pneumoniae [29] = assay: Antibacterial activity against extended spectrum beta-lactamase-positive Klebsiella pneumoniae J 14368/08 after 24 to 48 hrs by microdilution broth method; type: functional, organism-based
# Escherichia coli [30] = assay: Antibacterial activity against gram-negative Escherichia coli CCM 4517 after 24 hrs by microdilution broth method; type: functional; conditions: CCM 4517, 24 h
# [31] = system: Trichophyton mentagrophytes; assay: Antifungal activity against Trichophyton mentagrophytes 445 after 72 hrs by microdilution broth method; type: functional; conditions: Trichophyton mentagrophytes, 445, 72 h
# MONO-MAC-6 [32] = assay: Cytotoxicity against human MONO-MAC-6 cells after overnight incubation by MTT assay; type: functional, cell-based
# Pichia kudriavzevii [33] = assay: Antifungal activity against Candida krusei E28 after 24 hrs by microdilution broth method; type: functional; conditions: E28, 24 h
# HepG2 [34] = assay: Cytostatic activity against human HepG2 cells incubated overnight followed by compound wash measured after 72 hrs by MTT assay; type: ADME, cell-based; conditions: HepG2, 72 h
# [35] = system: Trichophyton mentagrophytes; assay: Antifungal activity against Trichophyton mentagrophytes 445 after 120 hrs by microdilution broth method; type: functional; conditions: Trichophyton mentagrophytes, 445, 120 h
# [36] = system: Mycobacterium tuberculosis; assay: Antimycobacterial activity against Mycobacterium tuberculosis H37Rv 331/88 after 14 days by micromethod; type: functional; conditions: H37Rv 331/88, 336 h
# Staphylococcus aureus [37] = assay: Antibacterial activity against gram-positive Staphylococcus aureus CCM 4516/08 after 48 hrs by microdilution broth method; type: functional; conditions: CCM 4516/08, 48 h
# [38] = Selectivity index, ratio of IC50 for human HepG2 cells to MIC for Mycobacterium tuberculosis H37Rv 331/88; type: toxicity; conditions: read-out: Selectivity Index
# [39] = Selectivity index, ratio of IC50 for human HepG2 cells to MIC for Mycobacterium kansasii 6509/80; type: toxicity; conditions: read-out: Selectivity Index
# [40] = Selectivity index, ratio of IC50 for human HepG2 cells to MIC for gram-positive Staphylococcus aureus CCM 4516/08; type: toxicity; conditions: read-out: Selectivity Index
# [41] = Selectivity index, ratio of IC50 for human HepG2 cells to MIC for Mycobacterium avium 330/88; type: toxicity; conditions: read-out: Selectivity Index
# [42] = Selectivity index, ratio of IC50 for human HepG2 cells to MIC for Mycobacterium kansasii 6509/96; type: toxicity; conditions: read-out: Selectivity Index
structure (smiles),measurement,setting,value
O=C(N/N=C/c1ccccc1O)c1ccc(C(F)(F)F)cc1,MIC,Mycobacterium kansasii [1],250 µM
same,MIC,Mycobacterium avium [2],250 µM
same,selectivity ratio,[3],> 6.4
same,MIC,Mycobacterium kansasii [4],250 µM
same,MIC,Candida tropicalis [5],> 125 µM
same,selectivity ratio,[6],> 6.4
same,MIC,Mycobacterium kansasii [7],250 µM
same,MIC,Enterococcus faecalis [8],250 µM
same,MIC,Pichia kudriavzevii [9],> 125 µM
same,IC50,[10],> 100 µM
same,MIC,Escherichia coli [11],500 µM
same,MIC,Mycobacterium avium [12],125 µM
same,Activity,Klebsiella pneumoniae [13],inactive
same,MIC,Nakaseomyces glabratus [14],3.9 µM
same,MIC,Mycobacterium kansasii [15],250 µM
same,MIC,Staphylococcus aureus [16],> 500 µM
same,MIC,Enterococcus faecalis [17],250 µM
same,Activity,Pseudomonas aeruginosa,inactive
same,Activity,Candida albicans,inactive
same,Activity,Aspergillus fumigatus,inactive
same,MIC,Candida tropicalis [18],> 125 µM
same,MIC,Mycobacterium kansasii [19],250 µM
same,MIC,[20],250 µM
same,IC50,MONO-MAC-6 [21],1.7 µM
same,IC50,HepG2 [22],> 100 µM
same,MIC,Nakaseomyces glabratus [23],15.6 µM
same,MIC,[24],250 µM
same,MIC,Staphylococcus aureus [25],500 µM
same,MIC,Mycobacterium kansasii [26],250 µM
same,Activity,Trichosporon asahii,inactive
same,MIC,Staphylococcus aureus [27],500 µM
same,MIC,[28],500 µM
same,Activity,Lichtheimia corymbifera,inactive
same,Activity,Klebsiella pneumoniae [29],inactive
same,MIC,Escherichia coli [30],500 µM
same,MIC,[31],7.81 µM
same,IC50,MONO-MAC-6 [32],2.28 µM
same,MIC,Pichia kudriavzevii [33],> 125 µM
same,IC50,HepG2 [34],6.2 µM
same,MIC,[35],15.6 µM
same,MIC,[36],125 µM
same,MIC,Staphylococcus aureus [37],> 500 µM
O=C(N/N=C/c1cc(Cl)ccc1O)c1ccc(C(F)(F)F)cc1,MIC,Mycobacterium kansasii [1],125 µM
same,MIC,Mycobacterium avium [2],125 µM
same,selectivity ratio,[3],> 25.6
same,MIC,Mycobacterium kansasii [4],125 µM
same,MIC,Candida tropicalis [5],> 125 µM
same,selectivity ratio,[6],> 25.6
same,MIC,Mycobacterium kansasii [7],125 µM
same,MIC,Enterococcus faecalis [8],1.98 µM
same,MIC,Pichia kudriavzevii [9],> 125 µM
same,IC50,[10],> 100 µM
same,selectivity ratio,[38],> 1.6
same,MIC,Escherichia coli [11],250 µM
same,MIC,Mycobacterium avium [12],62.5 µM
same,Activity,Klebsiella pneumoniae [13],inactive
same,MIC,Nakaseomyces glabratus [14],≤ 0.49 µM
same,MIC,Mycobacterium kansasii [15],62.5 µM
same,MIC,Staphylococcus aureus [16],1.98 µM
same,MIC,Enterococcus faecalis [17],3.9 µM
same,Activity,Pseudomonas aeruginosa,inactive
same,Activity,Candida albicans,inactive
same,Activity,Aspergillus fumigatus,inactive
same,MIC,Candida tropicalis [18],> 125 µM
same,selectivity ratio,[39],> 1.6
same,selectivity ratio,[40],> 50.5
same,MIC,Mycobacterium kansasii [19],125 µM
same,MIC,[20],62.5 µM
same,IC50,MONO-MAC-6 [21],10.3 µM
same,IC50,HepG2 [22],> 100 µM
same,MIC,Nakaseomyces glabratus [23],0.98 µM
same,MIC,[24],3.9 µM
same,selectivity ratio,[41],> 1.6
same,MIC,Staphylococcus aureus [25],1.98 µM
same,MIC,Mycobacterium kansasii [26],62.5 µM
same,Activity,Trichosporon asahii,inactive
same,MIC,Staphylococcus aureus [27],1.98 µM
same,MIC,[28],3.9 µM
same,Activity,Lichtheimia corymbifera,inactive
same,Activity,Klebsiella pneumoniae [29],inactive
same,MIC,Escherichia coli [30],250 µM
same,MIC,[31],1.98 µM
same,IC50,MONO-MAC-6 [32],5.8 µM
same,MIC,Pichia kudriavzevii [33],> 125 µM
same,IC50,HepG2 [34],13.6 µM
same,MIC,[35],3.9 µM
same,MIC,[36],62.5 µM
same,selectivity ratio,[42],> 1.6
same,MIC,Staphylococcus aureus [37],1.98 µM

# From ChEMBL document CHEMBL4177650, “Synthesis and biological evolution of hydrazones derived from 4-(trifluoromethyl)benzohydrazide” (Bioorg Med Chem Lett, 2017)
